Test results: patent US12551478B2, “Quinoline derivative having indoleamine-2,3-dioxygenase inhibitory activity” (SHENZHEN CHIPSCREEN BIOSCIENCES CO., LTD., priority 2018, dated 2026)

Biological target: T1, human indoleamine 2,3-dioxygenase 1 (hIDO1) (Homo sapiens, UniProt P14902)
T1 construct: up-regulate the expression of endogenous IDO1 under the induction of human IFN-γ; endogenous in cells; host or cells: HeLa cells stimulated with human IFN-γ
Assay: Inhibitory activity test at cellular level: IFN-γ-induced HeLa cells, kynurenine colour reaction
Type: cell-based
Conditions: 48 hours; for inhibition at 0.1 µM: 50 ng/ml human IFN-γ, 200 μM L-tryptophan, each test compound 100 nM, read-out: hIDO1-cell base inhibition rate (%); for EC50: human IFN-γ, read-out: hIDO1-cell base EC50
Excerpt: The subject of this assay was to comprehensively evaluate different compounds on their enzymatic inhibitory activity in vitro and on cell models against human indoleamine 2,3-dioxygenase 1 (hIDO1).
In the present application, the inventors used Hela cells expressing IDO1 induced by IFN-γ as a model, to test the IDO1 inhibitory activity of the compounds at the cellular level.
HeLa cells are human cervical cancer cell lines, which can up-regulate the expression of endogenous IDO1 under the induction of human IFN-γ. By adding the substrate L-tryptophan to cell culture medium, the enzymatic catalysis product kynurenine in cell supernatant was detected. In this experiment, the cultured Hela cells were used and co-incubated with different concentrations of test compounds under stimulation of human IFN-γ for a specified period of time, and the color reaction method of enzyme product and p-dimethylaminobenzaldehyde was used to detect the effect on IDO enzyme activity of cells treated by the test compounds.
(1) Hela cells were inoculated into 96-well culture plates at an appropriate concentration (about 20,000 cells/well). […] The cells were continuously cultured for 48 hours before detection.
(2) 200 μL of the supernatant in the culture well was pipetted out, added with 40 μL of the pre-prepared 30% (w/v) trichloroacetic acid solution, and reacted at 65° C. for 20 minutes, and then centrifuged at 12000 rpm for 15 minutes.
(3) 100 μL of the supernatant after centrifugation was pipetted out, added into a 96-well flat bottom plate, then added with an equal volume of 2% p-dimethylaminobenzaldehyde in glacial acetic acid and mixed well, and stood at room temperature for 10 minutes.
(4) microplate reader (ELX800NB) was used to detect the absorbance value of each well, and the detection wavelength was 492 nm.
In addition, after the cell enzyme activity inhibition rates of test compounds with different concentration gradients were separately calculated, their cell enzyme activity half inhibition concentrations (EC50) were calculated by using EC50 calculator.
According to the above-mentioned experimental method, the compounds of the present application were subjected to IDO1 enzymatic evaluation at cytological level (the concentration of each test compound was all 100 nM).
According to the above-mentioned experimental method, the compound of the present application was subjected to hIDO1-cell base EC50 detection.

T1 sequence (P14902 whole entry): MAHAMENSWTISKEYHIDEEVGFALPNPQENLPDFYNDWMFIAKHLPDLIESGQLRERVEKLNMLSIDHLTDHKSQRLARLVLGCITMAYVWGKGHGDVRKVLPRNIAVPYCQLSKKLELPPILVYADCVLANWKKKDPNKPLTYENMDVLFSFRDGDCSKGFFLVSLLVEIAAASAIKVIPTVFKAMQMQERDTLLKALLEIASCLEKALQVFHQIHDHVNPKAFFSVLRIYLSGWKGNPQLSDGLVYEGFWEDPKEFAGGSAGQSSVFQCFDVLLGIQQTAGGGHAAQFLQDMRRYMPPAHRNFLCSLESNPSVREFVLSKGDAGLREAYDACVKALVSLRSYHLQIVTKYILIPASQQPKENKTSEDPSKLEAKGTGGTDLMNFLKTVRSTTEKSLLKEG

Row | Compound | inhibition at 0.1 µM [%] | EC50 [nM]
1 | CC(C(=O)NC1CCCCC1)N1CC2(CC(Oc3ccnc4ccc(F)cc34)C2)C1 (centres unmarked) [Example 40, N-cyclohexyl-2-(6-((6-fluoroquinolin-4-yl)oxo)-2-aza-spiro[3.3]heptan-2-yl)propionamide] | 19 | –
2 | CC(C(=O)Nc1ccc(Cl)cc1)N1CC2CC(Nc3ccnc4ccc(F)cc34)CC2C1 (centres unmarked) [Example 83, N-(4-chlorophenyl)-2-(5-((6-fluoroquinolin-4-yl)amino)hexahydro-cyclopenta[c]pyrrol-2(1H)-yl)propionamide] | 45 | –
3 | O=C(Nc1ccc(Cl)cc1)C(CO)N1CC2C(C1)C2Nc1ccnc2ccc(F)cc12 (centres unmarked) [Example 78, N-(4-chlorophenyl)-2-(6-((6-fluoroquinolin-4-yl)amino)-3-aza-bicyclo[3.1.0]hexan-3-yl)-3-hydroxypropionamide] | 42 | –
4 | O=C(Nc1ccc(F)cc1)N1CC2(CC(Oc3ccnc4ccc(F)cc34)C2)C1 [Example 16, N-(4-fluorophenyl)-6-((6-fluoroquinolin-4-yl)oxy)-2-aza-spiro[3.3]heptan-2-carboxamide] | 85 | 33
5 | CC(C(=O)Nc1ccc(Cl)cc1)N1CC2(CC(Oc3ccnc4ccc(F)cc34)C2)C1 (centres unmarked) [Example 39, N-(4-chlorophenyl)-2-(6-((6-fluoroquinolin-4-yl)oxo)-2-aza-spiro[3.3]heptan-2-yl)propionamide] | 91 | 20
6 | COc1ccc(NC(=O)N2CC3(CC(Oc4ccnc5ccc(F)cc45)C3)C2)cc1 [Example 5, N-(4-methoxyphenyl)-6-((6-fluoroquinolin-4-yl)oxy)-2-aza-spiro[3.3]heptan-2-carboxamide] | 63 | –
7 | O=C(Nc1ccc(Cl)cc1)N1CC2(CC(Oc3nccc4ccccc34)C2)C1 [Example 36, N-(4-chlorophenyl)-6-(isoquinolin-1-yloxy)-2-aza-spiro[3.3]heptan-2-carboxamide] | 26 | –
8 | COC/C=C/c1ccc(NC(=O)N2CC3(CC(Oc4ccnc5ccc(F)cc45)C3)C2)cc1 [Example 10] | 90 | –
9 | COc1ccc(NC(=O)C(C)N2CC3C(C2)C3Nc2ccnc3ccc(F)cc23)cc1 (centres unmarked) [Example 73, 2-(6-((6-fluoroquinolin-4-yl)amino)-3-aza-bicyclo[3.1.0]hexan-3-yl)-N-(4-methoxyphenyl)propionamide] | 83 | –
10 | CC(C(=O)Nc1ccc(Cl)cc1)N1CC2(CC(Nc3ccnc4ccc(F)cc34)C2)C1 (centres unmarked) [Example 54, N-(4-chlorophenyl)-2-(6-((6-fluoroquinolin-4-yl)amino)-2-aza-spiro[3.3]heptan-2-yl)propionamide] | 69 | –
11 | O=C(Nc1ccc(Cl)cc1)N1CC2C(C1)C2Oc1ccnc2ccc(F)cc12 (centres unmarked) [Example 31, N-(4-chlorophenyl)-6-((6-fluoroquinolin-4-yl)oxy)-3-aza-cyclo[3.1.0]hexan-3-carboxamide] | 46 | –
12 | COc1cccc(NC(=O)N2CC3(CC(Oc4ccnc5ccc(F)cc45)C3)C2)c1 [Example 4, N-(3-methoxyphenyl)-6-((6-fluoroquinolin-4-yl)oxy)-2-aza-spiro[3.3]heptan-2-carboxamide] | 49 | –
13 | O=C(c1ccc(Cl)cc1)N1CC2(CC(Oc3ccnc4ccc(F)cc34)C2)C1 [Example 6, (4-chlorophenyl)(6-((6-fluoroquinolin-4-yl)oxy)-2-aza-spiro[3.3]heptan-2-yl) methanone] | 87 | 36
14 | CC(C(=O)Nc1ccc(Cl)cc1)N1CC2C(COc3ccnc4ccc(F)cc34)C2C1 (centres unmarked) [Example 46, N-(4-chlorophenyl)-2-(6-(((6-fluoroquinolin-4-yl)oxo)methyl)-3-aza-bicyclo[3.1.0]hexan-3-yl)propionamide] | 49 | –
15 | COc1cccc(NC(=O)C(C)N2CCC3CN(c4ccnc5ccc(F)cc45)CC3C2)c1 (centres unmarked) [Example 65, 2-(2-(6-fluoroquinolin-4-yl)octahydro-5H-pyrrolo[3,4-c]pyridin-5-yl)-N-(3-methoxyphenyl)propionamide] | 59 | –
16 | O=C(Nc1ccc2c(c1)CCO2)N1CC2(CC(Oc3ccnc4ccc(F)cc34)C2)C1 [Example 32, N-(2,3-dihydrobenzofuran-5-yl)-6-((6-fluoroquinolin-4-yl)oxy)-2-aza-spiro[3.3]heptan-2-carboxamide] | 44 | –

Row | Compound | inhibition at 0.1 µM [%] | EC50 [nM]
17 | CC(C(=O)Nc1ccccc1)N1CC2C(C1)C2Nc1ccnc2ccc(F)cc12 (centres unmarked) [Example 74, 2-(6-((6-fluoroquinolin-4-yl)amino)-3-aza-bicyclo[3.1.0]hexan-3-yl)-N-phenyl-propionamide] | 85 | –
18 | O=C(CNc1ccccc1)N1CC2(CC(Oc3ccnc4ccc(F)cc34)C2)C1 [Example 11, 1-(6-((6-fluoroquinolin-4-yl)oxy)-2-aza-cyclo[3.3]heptan-2-yl)-2-(anilino)ethyl-1-one] | 25 | –
19 | CC(C(=O)Nc1ccc(Cl)cc1)N1CCC2CN(c3ccnc4ccc(F)cc34)CC2C1 (centres unmarked) [Example 64, N-(4-chlorophenyl)-2-(2-(6-fluoroquinolin-4-yl)octahydro-5H-pyrrolo[3,4-c]pyridin-5-yl)propionamide] | 96 | –
20 | O=C(/C=C/c1ccc(Cl)cc1)N1CC2(CC(Oc3ccnc4ccc(F)cc34)C2)C1 [Example 7, (E)-3-(4-chlorophenyl)-1-(6-((6-fluoroquinolin-4-yl)oxy)-2-aza-spiro[3.3]heptan-2-yl)prop-2-en-1-one] | 31 | –
21 | O=C(NCc1ccc(Cl)cc1)N1CC2(CC(Oc3ccnc4ccc(F)cc34)C2)C1 [Example 15, N-(4-chlorobenzyl)-6-((6-fluoroquinolin-4-yl)oxy)-2-aza-spiro[3.3]heptan-2-carboxamide] | 18 | –
22 | O=C(Nc1ccc(Cl)cc1)N1CC2(CC(Oc3cnc4ccccc4c3)C2)C1 [Example 26, N-(4-chlorophenyl)-6-(quinolin-3-yloxy)-2-aza-spiro[3.3]heptan-2-carboxamide] | 15 | –
23 | COc1ccc(NC(=O)C(C)N2CCC3CN(c4ccnc5ccc(F)cc45)CC3C2)cc1 (centres unmarked) [Example 66, 2-(2-(6-fluoroquinolin-4-yl)octahydro-5H-pyrrolo[3,4-c]pyridin-5-yl)-N-(4-methoxyphenyl)propionamide] | 90 | –
24 | CC(C(=O)Nc1ccccc1)N1CCC2CN(c3ccnc4ccc(F)cc34)CC2C1 (centres unmarked) [Example 67, 2-(2-(6-fluoroquinolin-4-yl)octahydro-5H-pyrrolo[3,4-c]pyridin-5-yl)-N-phenyl-propionamide] | 94 | –
25 | CC(C(=O)Nc1ccc(Cl)cc1)N1CC2(CC(N(C)c3ccnc4ccc(F)cc34)C2)C1 (centres unmarked) [Example 59, N-(4-chloro)-2-(6-((6-fluoroquinolin-4-yl)(methyl)amino)-2-aza-spiro[3.3]heptan-2-yl)propionamide] | 85 | 25
26 | CC(C(=O)Nc1ccc(Cl)cc1)N1CC2C(C1)C2Oc1ccnc2ccc(F)cc12 (centres unmarked) [Example 49, N-(4-chlorophenyl)-2-(6-((6-fluoroquinolin-4-yl)oxo)-3-aza-bicyclo[3.1.0]hexan-3-yl)propionamide] | 99 | 5
27 | CC(C(=O)Nc1cccnc1)N1CC2(CC(Oc3ccnc4ccc(F)cc34)C2)C1 (centres unmarked) [Example 41, 2-(6-((6-fluoroquinolin-4-yl)oxo)-2-aza-spiro[3.3]heptan-2-yl)-N-(pyridin-3-yl)propionamide] | 23 | –
28 | O=C(Nc1ccc(Cl)cc1)N1CC2(CCC(Nc3ccnc4ccc(F)cc34)C2)C1 (centres unmarked) [Example 19] | 61 | –
29 | O=C(Nc1ccc(Cl)cc1)N1CC2(CC(Oc3ncnc4ccccc34)C2)C1 [Example 29, N-(4-chlorophenyl)-6-(quinazolin-4-yloxy)-2-aza-spiro[3.3]heptan-2-carboxamide] | 10 | –
30 | O=C(Nc1ccc(F)cc1)N1CC2C(C1)C2Oc1ccnc2ccc(F)cc12 (centres unmarked) [Example 30, N-(4-fluorophenyl)-6-((6-fluoroquinolin-4-yl)oxy)-3-aza-cyclo[3.1.0]hexan-3-carboxamide] | 11 | –
31 | O=C(Nc1ccc2c(c1)OCCO2)N1CC2(CC(Oc3ccnc4ccc(F)cc34)C2)C1 [Example 33, N-(2,3-dihydrobenzo[b][1,4]dioxin-6-yl)-6-((6-fluoroquinolin-4-yl)oxy)-2-aza-spiro[3.3]heptan-2-carboxamide] | 10 | –
32 | O=C(Nc1ccc(Cl)cc1)N1CC2(CC(Oc3ccnc4ccccc34)C2)C1 [Example 23, N-(4-chlorophenyl)-6-(quinolin-4-yloxy)-2-aza-spiro[3.3]heptan-2-carboxamide] | 74 | 26
